From patent US20150147309A1, “ALLOSTERIC CHAPERONES AND USES THEREOF” (Fondazione Telethon, priority 2012, published 2015) come the findings set out here.

The target in assay [1] is T1, rhGAA (Homo sapiens, UniProt P10253).
T1 construct: purchased Genzyme Co, Cambridge, Mass., USA
The assay is described as follows: Thermal stability scans of rhGAA (SYPRO Orange). It is filed as binding. The following applies: pH 7.4. On the procedure:
Thermal stability scans of rhGAA were performed as described in [Flanagan et al. 2009]. Briefly, 2.5 μg of enzyme were incubated in the absence and in the presence of NAC and DNJ, 10 mM and 0.1 mM, respectively, SYPRO Orange dye, and sodium phosphate 25 mM buffer, 150 mM NaCl, pH 7.4 or sodium acetate 25 mM buffer, 150 mM NaCl, pH 5.2. Thermal stability scans were performed at 1° C./min in the range 25-95° C. in a Real Time LightCycler (Bio-Rad). SYPRO Orange fluorescence was normalized to maximum fluorescence value within each scan to obtain relative fluorescence. Melting temperatures were calculated according to (Niesen et al. 2007).

Assay [2] concerns the target T1, rhGAA. The assay is described as follows: Effect on rhGAA enzyme activity (standard activity assay). Format: biochemical. The following applies: three concentrations (FIG. 4). The method, then: The standard activity assay of rhGAA was performed in 200 μl by using 5 μg of enzyme at 37° C. in 100 mM sodium acetate pH 4.0 and 20 mM 4NP-Glc. The reaction was started by adding the enzyme; after suitable incubation time (1-2 min) the reaction was blocked by adding 800 μL of 1 M sodium carbonate pH 10.2. Absorbance was measured at 420 nm at room temperature, the extinction coefficient to calculate enzymatic units was 17.2 mM^−1 cm^−1. One enzymatic unit is defined as the amount of enzyme catalyzing the conversion of 1 μmol substrate into product in 1 min, under the indicated conditions.

Assay [3] has as its target T2, GAA activity in tissues (Homo sapiens, UniProt P10253).
T2 construct: purchased Genzyme Co, Cambridge, Mass., USA
The assay is described as follows: Synergy between NAC and rhGAA in vivo in mouse model of PD. Also noted: species or system mice. The note with it: oral NAC 5 days, rhGAA 100 mg/kg on day 3, liver, heart, diaphragm, gastrocnemium, not statistically significant. On the procedure:
Animal studies were performed according to the European Union Directive 86/609, regarding the protection of animals used for experimental purposes. The animals, mice model of PD [Raben et al, 1993], were allowed to drink 138 mM NAC in water ad libitum (4.2 g/kg/day) for 5 days. On day 3 they received a single rhGAA injection (100 mg/kg) in the tail vein. On day 5 the animals were sacrificed and tissues were analyzed for GAA activity.

Assay [4] addresses T3, rh-alpha-Gal A (Homo sapiens, UniProt P06280).
T3 construct: purchased Genzyme Co, Cambridge, Mass., USA
T3 sequence (P06280 32-429): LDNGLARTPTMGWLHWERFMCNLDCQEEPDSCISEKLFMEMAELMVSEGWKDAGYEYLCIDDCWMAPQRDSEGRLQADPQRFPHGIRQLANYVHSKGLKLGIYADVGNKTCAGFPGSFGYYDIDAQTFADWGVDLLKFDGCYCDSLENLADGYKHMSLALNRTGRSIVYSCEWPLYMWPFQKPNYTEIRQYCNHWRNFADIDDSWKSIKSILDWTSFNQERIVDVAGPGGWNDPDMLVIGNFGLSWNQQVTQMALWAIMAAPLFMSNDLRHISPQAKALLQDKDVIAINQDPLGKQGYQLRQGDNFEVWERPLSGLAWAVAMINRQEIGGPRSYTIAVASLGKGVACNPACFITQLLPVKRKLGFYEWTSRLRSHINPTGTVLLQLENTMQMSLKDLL
In words: Effect of NAC on rh-alpha-Gal A at neutral pH. Format: biochemical. The note with it: 10 mM, 50 mM sodium citrate/phosphate buffer pH 7.0, after 48 h. The method, then:
An important concern on the use of pharmacological chaperones is the specificity of their effects and the possibility of interactions with other enzymes. […] The latter family includes lysosomal alpha-galactosidase A (alpha-Gal A), that is defective in another LSD, Fabry disease [Germain, 2010]. Two preparations of recombinant human alpha-Gal A (rh-alpha-Gal A) have been approved for ERT in Fabry disease patients. To test if NAC is active on this enzyme, authors incubated rh-alpha-Gal A and 10 mM NAC in 50 mM sodium citrate/phosphate buffer, pH 7.0. NAC had no effect on rh-alpha-Gal A after 48 h (FIG. 10A).

For assay [5], the target named is T4, rhGAA in PD fibroblasts (Homo sapiens, UniProt P10253).
T4 construct: purchased Genzyme Co, Cambridge, Mass., USA
The assay is described as follows: Correction of GAA activity by rhGAA in PD fibroblasts with chaperone (synergy). It is filed as cell-based. The method, then: To study the rhGAA uptake and correction of GAA activity in PD fibroblasts, the cells were incubated with […] rhGAA for 24 hours, in the absence or in the presence of 10 mM NAC. Untreated cells or were used for comparison. After the incubation the cells were harvested by trypsinization and disrupted by 5 cycles of freezing and thawing.
GAA activity was assayed by using the fluorogenic substrate 4-methylumbelliferyl-alpha-D-glucopyranoside (Sigma-Aldrich) according to a published procedure [Porto et al, 2009]. Briefly, 25 micrograms of protein were incubated with the fluorogenic substrate (2 mM) in 0.2 M acetate buffer, pH 4.0, for 60 minutes in incubation mixtures of 100 μl. The reaction was stopped by adding 700 μl of glycine-carbonate buffer, pH 10.7. Fluorescence was read at 365 nm (excitation) and 450 nm (emission) on a Turner Biosystems Modulus fluorometer. Protein concentration in cell homogenates was measured by the Bradford assay (Biorad, Hercules, Calif.).
To study GAA immunoreactive material, fibroblast extracts were subjected to western blot analysis. The cells were harvested, washed in phosphate-buffered saline, resuspended in water, and disrupted by five cycles of freeze-thawing. Equal amounts (20 μg protein) of fibroblast extracts were subjected to sodium dodecyl sulfate polyacrylamide gel electrophoresis and proteins were transferred to PVD membrane (Millipore, Billerica, Mass.). An anti-human GAA antiserum was used as primary antibody to detect GAA polypeptides; to detect β-actin, a monoclonal mouse antibody was used Immunoreactive proteins were detected by chemiluminescence (ECL, Amersham, Freiburg, Germany)
To study the distribution of AlexaFluor546 labeleld GAA, PD fibroblasts grown on coverslips were fixed using methanol, permeabilized using 0.1% saponin and locked with 0.01% saponin, 1% fetal bovine serum diluted in phosphate-buffered saline for 1 hour. The cells were incubated with the primary antibodies, with secondary antibodies in blocking solution and then mounted with vectashield mounting medium (Vector Laboratories, Burlingame, Calif.). Samples were examined with a Zeiss LSM 5 10 laser scanning confocal microscope. Authors used Argon/2 (458, 477, 488, and 514 nanometers) and HeNe1 (543 nanometers) excitation lasers, which were switched-on separately to reduce crosstalk of the two fluorochromes. The green and the red emissions were separated by a dichroic splitter (FT 560) and filtered (515-540-nm bandpass filter for green and >610-nm long pass filter for red emission). A threshold was applied to the images to exclude ˜99% of the signal found in control images.

For `CC(=O)N[C@@H](CS)C(=O)O` [NAC, N-acetyl cysteine], the ΔTm at 10000 µM in assay [1] (10 mM, read-out: increase of melting temperature (Tm) of rhGAA) was determined as 10.5 ± 0.5 °C. The “Tm of rhGAA in the presence of chaperone” value in assay [1] (NAC 10 mM, DNJ 0.1 mM) was determined as 60.7±0.5 °C. Besides, the “effect on the activity of the enzyme (rhGAA)” value in assay [2] was “not a competitive inhibitor”. In assay [3], the “correction of GAA enzyme activity in tissues, combination with rhGAA vs rhGAA alone” value is reported as “superior to rhGAA alone”. The “effect on rh-alpha-Gal A” value in assay [4] is recorded as “no effect”. In assay [5] (PD fibroblasts), the “amount of fluorochrome-labelled GAA compared to fluorescent GAA alone” value was “increase” and the “correction of the enzymatic defect on co-administration with rhGAA” value was “complete correction”. In addition, the “processing of rhGAA into the mature active isoforms” value in assay [5] (PD fibroblasts, western blot band density) was “improved”. The “GAA-related polypeptides on western blot compared to rhGAA alone” value in assay [5] (PD fibroblasts, with rhGAA) is given as “increased amounts”. Moreover, the “improvement of GAA activity on co-administration with rhGAA, dose dependence” value in assay [5] (fibroblasts from patient 3, 0.02-10 mM) is on record as “dose-dependent effect”.
